Laboratory results as given in paper PMC7901654, “Bioisosteric Discovery of NPA101.3, a Second-Generation RET/VEGFR2 Inhibitor Optimized for Single-Agent Polypharmacology” (Journal of Medicinal Chemistry, 2020).

What was measured:
Assay in all cases: KinomeScan panel screen
Assay type in all cases: binding
[1] = biological target: T1, BRAF (Homo sapiens, UniProt P15056); details: 100 nM, read-out: Percent Control
T1 construct: purchased DiscoveRx KINOMEscan (TRKA and CSF1R IC50 enzymes from Invitrogen)
Protocol: (§1) In addition, NPA101.3, at a concentration of 100 nM, was subjected to a kinome scan against a 96-kinase panel representing major kinome clusters (Table S2). The compound featured good selectivity, displaying strong binding activity (>90% bound) for only seven additional kinases [CSF1R (colony stimulating factor 1 receptor), FRK (fyn-related Src family tyrosine kinase), HCK (HCK proto-oncogene, Src family tyrosine kinase), LYN (lyn proto-oncogene, Src family tyrosine kinase), MKNK2 (MAPK-interacting serine/threonine kinase 2), TRKA (neurotrophic receptor tyrosine kinase 1), and TRKC (neurotrophic receptor tyrosine kinase 3)] and weak binding (>10–35% bound) for six other kinases (Table S2 and Figure S2). It is important to note that the measurement of binding affinity, which is based on control ligand displacement (Kd), is more sensitive than the in vitro kinase assay. Among the seven kinases with >90% binding, TRKA and CSF1R were selected for an in vitro kinase assay.
(§2) Supplementary Table S2: NPA101.3 KinomeScan Panel screen.
(§3) NPA101.3 was screened at a single concentration of 100 nM. Hits values lower than
(§4) 10% of control were considered strongly positive.
(§5) DiscoveRx Gene Entrez Gene Percent Compound
(§6) Symbol Symbol Control Concentration

[2] = biological target: T2, CAMK1 (Homo sapiens, UniProt Q14012); details: CAMK1, 100 nM; read-out: Percent Control
T2 construct: purchased DiscoveRx KINOMEscan (TRKA and CSF1R IC50 enzymes from Invitrogen)
Protocol: as §1, §2, §3, §4, §5, §6

[3] = biological target: T3, CAMK2A (Homo sapiens, UniProt Q9UQM7); details: 100 nM, read-out: Percent Control
T3 construct: purchased DiscoveRx KINOMEscan (TRKA and CSF1R IC50 enzymes from Invitrogen)
Protocol: as §1, §2, §3, §4, §5, §6

[4] = biological target: T4, CDK5 (Homo sapiens, UniProt Q00535); details: CDK5, 100 nM; read-out: Percent Control
T4 construct: purchased DiscoveRx KINOMEscan (TRKA and CSF1R IC50 enzymes from Invitrogen)
Protocol: as §1, §2, §3, §4, §5, §6

[5] = biological target: T5, CDK7 (Homo sapiens, UniProt P50613); details: CDK7, 100 nM; read-out: Percent Control
T5 construct: purchased DiscoveRx KINOMEscan (TRKA and CSF1R IC50 enzymes from Invitrogen)
Protocol: as §1, §2, §3, §4, §5, §6

[6] = biological target: T6, CSNK1A1 (Homo sapiens, UniProt P48729); details: CSNK1A1, 100 nM; read-out: Percent Control
T6 construct: purchased DiscoveRx KINOMEscan (TRKA and CSF1R IC50 enzymes from Invitrogen)
Protocol: as §1, §2, §3, §4, §5, §6

[7] = biological target: T7, DLK (Homo sapiens, UniProt Q12852); details: 100 nM, read-out: Percent Control
T7 construct: purchased DiscoveRx KINOMEscan (TRKA and CSF1R IC50 enzymes from Invitrogen)
T7 sequence (Q12852 whole entry): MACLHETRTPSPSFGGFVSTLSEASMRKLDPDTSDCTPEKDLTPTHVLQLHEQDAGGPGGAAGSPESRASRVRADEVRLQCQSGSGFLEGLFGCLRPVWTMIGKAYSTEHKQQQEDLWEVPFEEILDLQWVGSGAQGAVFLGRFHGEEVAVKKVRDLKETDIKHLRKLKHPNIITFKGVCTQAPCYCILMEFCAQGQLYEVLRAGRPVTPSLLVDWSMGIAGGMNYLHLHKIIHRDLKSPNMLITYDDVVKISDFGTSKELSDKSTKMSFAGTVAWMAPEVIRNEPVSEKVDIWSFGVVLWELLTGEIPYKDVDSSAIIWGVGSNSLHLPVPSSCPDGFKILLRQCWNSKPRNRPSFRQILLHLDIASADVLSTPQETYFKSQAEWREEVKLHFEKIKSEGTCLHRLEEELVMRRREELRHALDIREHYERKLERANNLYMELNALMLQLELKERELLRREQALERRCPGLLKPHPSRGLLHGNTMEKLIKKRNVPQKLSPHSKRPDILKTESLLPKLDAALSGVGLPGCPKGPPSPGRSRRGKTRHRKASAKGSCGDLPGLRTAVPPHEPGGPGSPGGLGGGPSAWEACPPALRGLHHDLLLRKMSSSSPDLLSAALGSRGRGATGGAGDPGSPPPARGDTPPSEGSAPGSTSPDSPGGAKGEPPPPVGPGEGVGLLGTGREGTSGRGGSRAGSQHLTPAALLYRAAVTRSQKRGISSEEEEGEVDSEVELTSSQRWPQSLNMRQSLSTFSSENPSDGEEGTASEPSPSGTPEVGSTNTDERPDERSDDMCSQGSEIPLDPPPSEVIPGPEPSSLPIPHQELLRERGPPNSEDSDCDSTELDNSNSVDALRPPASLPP
Protocol: as §1, §2, §3, §4, §5, §6

[8] = biological target: T8, DMPK (Homo sapiens, UniProt Q09013); details: 100 nM, read-out: Percent Control
T8 construct: purchased DiscoveRx KINOMEscan (TRKA and CSF1R IC50 enzymes from Invitrogen)
Protocol: as §1, §2, §3, §4, §5, §6

[9] = biological target: T9, EPHA1 (Homo sapiens, UniProt P21709); details: EPHA1, 100 nM; read-out: Percent Control
T9 construct: purchased DiscoveRx KINOMEscan (TRKA and CSF1R IC50 enzymes from Invitrogen)
T9 sequence (P21709 26-976): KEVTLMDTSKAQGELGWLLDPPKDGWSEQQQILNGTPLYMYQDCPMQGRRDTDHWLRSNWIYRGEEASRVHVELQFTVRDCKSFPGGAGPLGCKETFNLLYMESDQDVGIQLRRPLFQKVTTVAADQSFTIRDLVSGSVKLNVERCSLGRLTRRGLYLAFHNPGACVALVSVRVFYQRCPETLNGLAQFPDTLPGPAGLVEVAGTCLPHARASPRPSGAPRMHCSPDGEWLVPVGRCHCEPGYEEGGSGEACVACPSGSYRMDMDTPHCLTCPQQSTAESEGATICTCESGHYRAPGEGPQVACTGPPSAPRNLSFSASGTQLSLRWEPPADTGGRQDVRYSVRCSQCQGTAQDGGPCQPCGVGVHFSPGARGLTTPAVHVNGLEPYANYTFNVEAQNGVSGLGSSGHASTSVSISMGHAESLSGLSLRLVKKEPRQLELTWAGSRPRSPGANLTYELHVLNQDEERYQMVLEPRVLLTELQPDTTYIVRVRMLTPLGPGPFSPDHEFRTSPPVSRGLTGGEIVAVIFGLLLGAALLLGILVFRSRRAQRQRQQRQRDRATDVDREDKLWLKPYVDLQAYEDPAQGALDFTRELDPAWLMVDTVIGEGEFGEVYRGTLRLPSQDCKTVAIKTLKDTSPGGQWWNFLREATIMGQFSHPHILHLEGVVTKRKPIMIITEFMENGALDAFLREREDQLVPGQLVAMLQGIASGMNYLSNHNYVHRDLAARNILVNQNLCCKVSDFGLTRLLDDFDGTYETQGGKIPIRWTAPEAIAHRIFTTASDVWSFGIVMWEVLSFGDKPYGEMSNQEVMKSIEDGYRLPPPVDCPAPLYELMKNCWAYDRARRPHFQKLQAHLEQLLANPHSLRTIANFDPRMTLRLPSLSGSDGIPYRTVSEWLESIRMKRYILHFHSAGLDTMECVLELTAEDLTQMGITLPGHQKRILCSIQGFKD
Protocol: as §1, §2, §3, §4, §5, §6

[10] = biological target: T10, FYN (Homo sapiens, UniProt P06241); details: 100 nM, read-out: Percent Control
T10 construct: purchased DiscoveRx KINOMEscan (TRKA and CSF1R IC50 enzymes from Invitrogen)
Protocol: as §1, §2, §3, §4, §5, §6

[11] = biological target: T11, GSK3B (Homo sapiens, UniProt P49841); details: 100 nM, read-out: Percent Control
T11 construct: purchased DiscoveRx KINOMEscan (TRKA and CSF1R IC50 enzymes from Invitrogen)
Protocol: as §1, §2, §3, §4, §5, §6

[12] = biological target: T12, LRRK2 (Homo sapiens, UniProt Q5S007); details: LRRK2, 100 nM; read-out: Percent Control
T12 construct: purchased DiscoveRx KINOMEscan (TRKA and CSF1R IC50 enzymes from Invitrogen)
Protocol: as §1, §2, §3, §4, §5, §6

[13] = biological target: T13, MAP4K3 (Homo sapiens, UniProt Q8IVH8); details: MAP4K3, 100 nM; read-out: Percent Control
T13 construct: purchased DiscoveRx KINOMEscan (TRKA and CSF1R IC50 enzymes from Invitrogen)
Protocol: as §1, §2, §3, §4, §5, §6

[14] = biological target: T14, MELK (Homo sapiens, UniProt Q14680); details: 100 nM, read-out: Percent Control
T14 construct: purchased DiscoveRx KINOMEscan (TRKA and CSF1R IC50 enzymes from Invitrogen)
Protocol: as §1, §2, §3, §4, §5, §6

[15] = biological target: T15, MET (Homo sapiens, UniProt P08581); details: 100 nM, read-out: Percent Control
T15 construct: purchased DiscoveRx KINOMEscan (TRKA and CSF1R IC50 enzymes from Invitrogen)
T15 sequence (P08581 25-1390): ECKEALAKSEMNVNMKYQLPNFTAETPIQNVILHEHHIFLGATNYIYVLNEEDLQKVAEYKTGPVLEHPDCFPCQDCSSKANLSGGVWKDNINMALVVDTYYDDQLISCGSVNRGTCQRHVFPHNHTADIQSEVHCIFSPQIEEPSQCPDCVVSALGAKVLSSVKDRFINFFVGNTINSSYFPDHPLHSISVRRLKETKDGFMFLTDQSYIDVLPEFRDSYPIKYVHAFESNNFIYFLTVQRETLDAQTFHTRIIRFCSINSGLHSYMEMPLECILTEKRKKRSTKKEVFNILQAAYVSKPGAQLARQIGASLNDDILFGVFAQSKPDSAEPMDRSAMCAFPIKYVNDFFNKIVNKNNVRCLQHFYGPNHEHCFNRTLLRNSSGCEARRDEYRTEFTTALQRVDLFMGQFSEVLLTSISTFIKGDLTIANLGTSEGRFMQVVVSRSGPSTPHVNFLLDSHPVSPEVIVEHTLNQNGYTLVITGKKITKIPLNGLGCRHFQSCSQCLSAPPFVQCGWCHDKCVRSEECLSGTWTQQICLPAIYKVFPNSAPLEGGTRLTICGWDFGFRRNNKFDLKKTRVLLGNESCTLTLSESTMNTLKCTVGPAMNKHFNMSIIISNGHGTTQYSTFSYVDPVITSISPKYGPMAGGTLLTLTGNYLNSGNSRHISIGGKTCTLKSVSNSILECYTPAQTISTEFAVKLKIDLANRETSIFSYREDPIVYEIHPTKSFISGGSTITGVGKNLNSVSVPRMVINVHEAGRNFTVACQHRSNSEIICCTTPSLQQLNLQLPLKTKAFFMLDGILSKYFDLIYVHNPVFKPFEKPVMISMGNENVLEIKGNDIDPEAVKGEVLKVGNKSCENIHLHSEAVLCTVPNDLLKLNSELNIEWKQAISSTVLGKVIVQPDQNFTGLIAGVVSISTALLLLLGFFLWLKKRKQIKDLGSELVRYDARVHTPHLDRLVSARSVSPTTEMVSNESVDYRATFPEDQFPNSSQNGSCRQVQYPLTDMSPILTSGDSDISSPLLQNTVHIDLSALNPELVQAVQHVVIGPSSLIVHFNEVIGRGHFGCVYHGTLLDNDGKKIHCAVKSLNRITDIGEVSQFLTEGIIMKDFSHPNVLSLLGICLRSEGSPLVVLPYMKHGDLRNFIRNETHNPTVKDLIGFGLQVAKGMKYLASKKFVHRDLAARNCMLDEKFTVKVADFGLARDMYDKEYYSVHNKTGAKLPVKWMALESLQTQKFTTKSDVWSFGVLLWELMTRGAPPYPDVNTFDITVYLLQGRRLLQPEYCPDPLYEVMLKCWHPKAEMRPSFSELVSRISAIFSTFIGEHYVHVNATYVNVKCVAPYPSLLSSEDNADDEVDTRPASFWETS
Protocol: as §1, §2, §3, §4, §5, §6

[16] = biological target: T16, MLK3 (Homo sapiens, UniProt Q16584); details: MLK3, 100 nM; read-out: Percent Control
T16 construct: purchased DiscoveRx KINOMEscan (TRKA and CSF1R IC50 enzymes from Invitrogen)
Protocol: as §1, §2, §3, §4, §5, §6

[17] = biological target: T17, MUSK (Homo sapiens, UniProt O15146); details: 100 nM, read-out: Percent Control
T17 construct: purchased DiscoveRx KINOMEscan (TRKA and CSF1R IC50 enzymes from Invitrogen)
T17 sequence (O15146 24-869): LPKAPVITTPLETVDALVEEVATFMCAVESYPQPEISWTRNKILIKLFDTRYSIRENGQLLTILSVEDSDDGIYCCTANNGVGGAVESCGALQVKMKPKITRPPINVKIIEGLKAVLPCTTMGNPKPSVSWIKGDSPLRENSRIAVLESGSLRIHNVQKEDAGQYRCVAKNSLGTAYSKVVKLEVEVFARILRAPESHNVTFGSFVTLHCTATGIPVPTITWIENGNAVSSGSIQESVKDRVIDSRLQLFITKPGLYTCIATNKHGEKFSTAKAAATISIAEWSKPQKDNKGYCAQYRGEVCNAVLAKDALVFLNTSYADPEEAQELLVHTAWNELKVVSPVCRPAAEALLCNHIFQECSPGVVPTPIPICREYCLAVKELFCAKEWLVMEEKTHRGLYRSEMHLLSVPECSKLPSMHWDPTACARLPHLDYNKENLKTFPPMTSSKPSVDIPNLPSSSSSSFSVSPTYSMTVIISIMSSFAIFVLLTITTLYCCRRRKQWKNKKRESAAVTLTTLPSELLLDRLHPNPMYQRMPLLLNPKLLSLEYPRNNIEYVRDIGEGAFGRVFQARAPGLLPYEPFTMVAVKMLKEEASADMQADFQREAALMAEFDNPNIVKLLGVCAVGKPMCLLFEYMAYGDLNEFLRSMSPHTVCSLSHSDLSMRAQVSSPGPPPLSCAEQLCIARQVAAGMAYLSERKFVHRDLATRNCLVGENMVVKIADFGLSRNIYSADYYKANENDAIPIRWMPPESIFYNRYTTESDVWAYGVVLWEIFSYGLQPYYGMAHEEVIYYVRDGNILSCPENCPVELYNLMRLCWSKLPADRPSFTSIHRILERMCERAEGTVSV
Protocol: as §1, §2, §3, §4, §5, §6

[18] = biological target: T18, MYLK4 (Homo sapiens, UniProt Q86YV6); details: MYLK4, 100 nM; read-out: Percent Control
T18 construct: purchased DiscoveRx KINOMEscan (TRKA and CSF1R IC50 enzymes from Invitrogen)
Protocol: as §1, §2, §3, §4, §5, §6

[19] = biological target: T19, NDR1 (Homo sapiens, UniProt Q15208); details: NDR1, 100 nM; read-out: Percent Control
T19 construct: purchased DiscoveRx KINOMEscan (TRKA and CSF1R IC50 enzymes from Invitrogen)
Protocol: as §1, §2, §3, §4, §5, §6

[20] = biological target: T20, PIK3CA (Homo sapiens, UniProt P42336); details: 100 nM, read-out: Percent Control
T20 construct: purchased DiscoveRx KINOMEscan (TRKA and CSF1R IC50 enzymes from Invitrogen)
Protocol: as §1, §2, §3, §4, §5, §6

[21] = biological target: T21, PKAC-beta (Homo sapiens, UniProt P22694); details: 100 nM, read-out: Percent Control
T21 construct: purchased DiscoveRx KINOMEscan (TRKA and CSF1R IC50 enzymes from Invitrogen)
Protocol: as §1, §2, §3, §4, §5, §6

[22] = biological target: T22, PLK1 (Homo sapiens, UniProt P53350); details: PLK1, 100 nM; read-out: Percent Control
T22 construct: purchased DiscoveRx KINOMEscan (TRKA and CSF1R IC50 enzymes from Invitrogen)
Protocol: as §1, §2, §3, §4, §5, §6

[23] = biological target: T23, PLK4 (Homo sapiens, UniProt O00444); details: PLK4, 100 nM; read-out: Percent Control
T23 construct: purchased DiscoveRx KINOMEscan (TRKA and CSF1R IC50 enzymes from Invitrogen)
Protocol: as §1, §2, §3, §4, §5, §6

[24] = biological target: T24, RIPK4 (Homo sapiens, UniProt P57078); details: RIPK4, 100 nM; read-out: Percent Control
T24 construct: purchased DiscoveRx KINOMEscan (TRKA and CSF1R IC50 enzymes from Invitrogen)
Protocol: as §1, §2, §3, §4, §5, §6

[25] = biological target: T25, S6K1 (Homo sapiens, UniProt P23443); details: S6K1, 100 nM; read-out: Percent Control
T25 construct: purchased DiscoveRx KINOMEscan (TRKA and CSF1R IC50 enzymes from Invitrogen)
Protocol: as §1, §2, §3, §4, §5, §6

[26] = biological target: T26, SLK (Homo sapiens, UniProt Q9H2G2); details: 100 nM, read-out: Percent Control
T26 construct: purchased DiscoveRx KINOMEscan (TRKA and CSF1R IC50 enzymes from Invitrogen)
Protocol: as §1, §2, §3, §4, §5, §6

[27] = biological target: T27, STK33 (Homo sapiens, UniProt Q9BYT3); details: STK33, 100 nM; read-out: Percent Control
T27 construct: purchased DiscoveRx KINOMEscan (TRKA and CSF1R IC50 enzymes from Invitrogen)
Protocol: as §1, §2, §3, §4, §5, §6

[28] = biological target: T28, TAK1 (Homo sapiens, UniProt O43318); details: TAK1, 100 nM; read-out: Percent Control
T28 construct: purchased DiscoveRx KINOMEscan (TRKA and CSF1R IC50 enzymes from Invitrogen)
Protocol: as §1, §2, §3, §4, §5, §6

[29] = biological target: T29, TIE2 (Homo sapiens, UniProt Q02763); details: TIE2, 100 nM; read-out: Percent Control
T29 construct: purchased DiscoveRx KINOMEscan (TRKA and CSF1R IC50 enzymes from Invitrogen)
Protocol: as §1, §2, §3, §4, §5, §6

[30] = biological target: T30, TRKC (Homo sapiens, UniProt Q16288); details: 100 nM
T30 construct: purchased DiscoveRx KINOMEscan (TRKA and CSF1R IC50 enzymes from Invitrogen)
T30 sequence (Q16288 32-839): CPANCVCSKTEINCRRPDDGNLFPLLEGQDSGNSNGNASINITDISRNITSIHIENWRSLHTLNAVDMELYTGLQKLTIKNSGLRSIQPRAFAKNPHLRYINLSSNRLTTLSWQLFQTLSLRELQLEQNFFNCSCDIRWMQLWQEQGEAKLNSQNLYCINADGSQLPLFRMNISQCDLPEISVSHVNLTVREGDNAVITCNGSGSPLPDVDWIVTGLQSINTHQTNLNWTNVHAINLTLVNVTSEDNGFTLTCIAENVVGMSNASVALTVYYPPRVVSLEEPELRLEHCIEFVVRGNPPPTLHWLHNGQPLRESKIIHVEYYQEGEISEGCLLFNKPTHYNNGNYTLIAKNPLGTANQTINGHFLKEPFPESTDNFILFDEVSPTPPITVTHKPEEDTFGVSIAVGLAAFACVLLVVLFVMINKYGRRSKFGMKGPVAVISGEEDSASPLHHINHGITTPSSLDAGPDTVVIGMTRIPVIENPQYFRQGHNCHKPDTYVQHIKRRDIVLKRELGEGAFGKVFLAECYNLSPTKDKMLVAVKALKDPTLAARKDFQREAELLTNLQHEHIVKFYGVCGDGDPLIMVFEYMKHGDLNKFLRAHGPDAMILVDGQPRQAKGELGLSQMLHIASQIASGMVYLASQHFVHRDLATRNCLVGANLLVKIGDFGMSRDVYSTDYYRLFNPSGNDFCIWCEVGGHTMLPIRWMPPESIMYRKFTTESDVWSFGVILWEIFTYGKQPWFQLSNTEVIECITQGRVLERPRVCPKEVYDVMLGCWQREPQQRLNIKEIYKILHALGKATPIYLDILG
Protocol: as §1, §2, §3, §4, §5, §6

[31] = biological target: T31, ULK1 (Homo sapiens, UniProt O75385); details: ULK1, 100 nM; read-out: Percent Control
T31 construct: purchased DiscoverX (outsourced KINOMEscan)
Protocol: as §1, §2, §3, §4, §5, §6

SMILES: CC(C)(C)c1cc(NC(=O)Cc2ccc(-n3cnc4cc(-c5ccc(S(C)(=O)=O)cc5)ccc43)cc2)no1 [NPA101.3]
- remaining binding at 0.1 µM [1]: 98%
- remaining binding at 0.1 µM [2]: 95%
- remaining binding at 0.1 µM [3]: 98%
- remaining binding at 0.1 µM [4]: 97%
- remaining binding at 0.1 µM [5]: 28%
- remaining binding at 0.1 µM [6]: 69%
- remaining binding at 0.1 µM [7]: 100%
- remaining binding at 0.1 µM [8]: 99%
- remaining binding at 0.1 µM [9]: 39%
- remaining binding at 0.1 µM [10]: 27%
- remaining binding at 0.1 µM [11]: 100%
- remaining binding at 0.1 µM [12]: 100%
- remaining binding at 0.1 µM [13]: 95%
- remaining binding at 0.1 µM [14]: 83%
- remaining binding at 0.1 µM [15]: 79%
- remaining binding at 0.1 µM [16]: 100%
- remaining binding at 0.1 µM [17]: 23%
- remaining binding at 0.1 µM [18]: 89%
- remaining binding at 0.1 µM [19]: 86%
- remaining binding at 0.1 µM [20]: 100%
- remaining binding at 0.1 µM [21]: 82%
- remaining binding at 0.1 µM [22]: 99%
- remaining binding at 0.1 µM [23]: 100%
- remaining binding at 0.1 µM [24]: 100%
- remaining binding at 0.1 µM [25]: 100%
- remaining binding at 0.1 µM [26]: 35%
- remaining binding at 0.1 µM [27]: 83%
- remaining binding at 0.1 µM [28]: 13%
- remaining binding at 0.1 µM [29]: 30%
- binding (% bound) [30]: > 90 % bound
- remaining binding at 0.1 µM ([30]; TRKC, read-out: Percent Control): 0.25%
- remaining binding at 0.1 µM [31]: 100%
